In patent US20020127208A1, “Method of transplantation using chemotherapy-treated allogeneic cells that enhance immune responses without graft versus host disease” (priority 2000, published 2002):

Legend:
responder splenocytes = assay: Proliferative response to allo-antigen (MLR) and mitogen, thymidine incorporation; assay type: cell-based, mouse; settings: prior exposure to 20 μg/ml for 24 hours, vs control
From the text: A. Fludarabine attenuates the proliferative response of spleen cells to allogeneic stimulation (MLR) or mitogenic stimulation (con A). […] Strain combinations of DBA versus BL6 and BL6 versus DBA were used in the MLR experiments. CPM is expressed as percent of non-treated control.
4×10^6 cells/ml responder cells (either B10.BR, DBA/2, or Balb/c) were co-cultured with 2×10^6 irradiated (25 Gy) stimulator cells/ml (C57.BL6) in complete media with 10 U/ml IL-2 (Chiron Corporation, Emeryville, Calif.) and 10 ng/ml IL-7 (PeproTech Inc., Rocky Hill, N.J.) in 96 well plates. Proliferation was monitored by measuring DNA synthesis/thymidine incorporation. Cultures were pulsed with 1 uCi/well of tritiated thymidine (NEN Life Sciences, Boston, Mass.) on day 6, harvested onto filtermats using a Tomtec Harvester (Hamden, Conn.) on day 7, and read on MicroBeta TriLux counter (PerkinElmer, Inc., Gaithersburg, Md.).

[1] = tested on: lethally irradiated B10.BR (H2k) recipient mice; assay: MHC mis-matched C57.BL6 to B10.BR transplant model: survival, GvHD (weight), donor engraftment; assay type: in vivo, mouse; settings: splenocytes treated with 20 μg/ml vs control or other doses (0, 3, 10, 40 μg/ml)
From the text: Lethally irradiated (11 Gy) B10.BR (H2^k) recipient mice were transplanted with 1×10^6 BL6 (H2^b) TCD-BM cells (n=40, thin line). […] Survival and weight change data are derived from 2-6 individual experiments using 5 or 10 animals per group. Kaplan-Meier survival determinations are shown in A (ticks indicate time points at which individual experiments were terminated). Trend lines representing the mean weight change (percent body weight) for each group are shown in B. Trend lines were calculated using a moving average with a periodicity of 3.
1×10^6 TCD-BM cells and splenocytes from BL6 strains having different Thy1.1 or Thy1.2 isotypes were administered to lethally irradiated B10.BR mice. […] Donor splenocyte derived CD4+ (gray bars) and CD8+ (black bars) were quantified in the peripheral blood of recipient mice 2-4 months post-transplant.
B10.BR recipients were lethally irradiated and transplanted with 1×10^6 TCD-BM from CD45.1+ C57.BL6 donors. […] The fraction of blood T-cells derived from recipient, donor BM, and donor spleen were determined at day +27 post-transplant, using markers for T-cells (CD3), recipient-type cells (H2^k), donor-type cells (H2^b), and CD45.1/CD45.2 isoforms.
Recipient mice were irradiated 1 day prior to transplant using a ^137CS source at a rate of 1.24 Gy/min. […] The mice were monitored daily for survival; moribund animals were euthanized. […]

MCMV [2] = assay: Adoptive immunotherapy against MCMV lethality, 10x10^6 lymphocytes, B/6 to F1 BMT; assay type: in vivo, mouse; settings: day +120 post-BMT, MCMV infected; for % survival, immune splenocytes / Survivors/Total, immune splenocytes: 10×10^6 MCMV-immune lymphocytes; for % survival, naive splenocytes / Survivors/Total, naive splenocytes: 10×10^6 naive lymphocytes
Description: Spleens were removed from either untreated PepBoy mice (naive donors), or those that had been inoculated with 10^5-10^6 PFU MCMV 2-4 months earlier (immune donors).
To generate irradiated splenocytes for adoptive immunotherapy, cells were harvested after 24 hour culture and exposed to a single fraction of radiation from a ^137Cs source for a total of 7.5 Gy. S-59 psoralen (Cerus Corporation, Concord, Calif.) was added to some splenocytes cultures at the end of the 24 hour culture period at a final concentration of 2 nM. The cells in a T75 tissue culture flask were then placed on a UVA (320-400 nm) illumination device with a nominal fluorescence of 7 mW (Cole Parmer, Vernon Hill, Ill.) and illuminated for 5 mins to achieve 3.0 J/cm^2 equivalent UVA dose. Control (untreated) splenocytes were harvested after 24 hour culture without other interventions. For all four groups, lymphocytes were washed at the end of the culture/treatment period and the appropriate dosage of viable cells was used for adoptive immunotherapy.
One day prior to transplant, recipient F1 mice were conditioned using a ^137Cs source at a dose rate of 1.24 Gy/min. Two doses of 5.5 Gy were administered, 3 hours apart, for a total lethal dose of 11 Gy. Irradiated mice were given free access to drinking water containing oral antibiotics (1.1 mg/ml neomycin sulfate and 1000 U/ml polymyxin sulfate; Sigma, St. Louis, Mo.) starting 3 days prior to irradiation and continuing through the end of the experimental period. 5×10^6 T-cell depleted (TCD) BM cells in a total volume of 0.2 ml HBSS/FBS were injected into the tail vein of F1 mice on the day following irradiation. In adoptive immunotherapy experiments, the appropriate number of donor splenocytes were mixed with TCD BM cells and injected simultaneously in 0.2 ml total volume. Two hours after BMT, mice were injected intraperitoneally with appropriate MCMV inocula diluted in DMEM/CS. Control (uninfected) mice received DMEM/CS alone. Mice were evaluated daily for morbidity and mortality. The development of clinical GvHD was prospectively monitored by weighing mice twice weekly, as well as observing for alopecia and/or ruffled fur, diarrhea, and decreased activity with a “hunched over” appearance. Moribund mice were euthanized based on Emory IACUC end-points and protocols.
Lymphocytes were prepared from the spleens of naïve or MCMV-immune B/6 donors and 10×10^6 or 30×10^6 were infused IV at the time of B/6→F1 allogeneic BMT. […] Some groups of mice were subsequently infected with 2×10^4 PFU MCMV at two hours after BMT, a viral inoculum expected to produce 90-100% lethality (FIG. 8B).
Table 2: Effect of adoptive immunotherapy on the survival of B/6→F1 BMT mice following MCMV infection. At the time of BMT, mice were infused with 10×10^6 splenic lymphocytes from B/6 mice that were either previously-infected with MCMV (“Immune splenocytes”) or uninfected (“Naive splenocytes”). […] Some mice received lymphocytes that were untreated. The table lists the number of surviving mice (at day +120 post-BMT) and the total number of mice in each group, as well as the percentage survival.

MCMV [3] = assay: Adoptive immunotherapy against MCMV lethality, 30x10^6 MCMV-immune lymphocytes, B/6 to F1 BMT; assay type: in vivo, mouse; settings: 30×10^6 immune lymphocytes; 2×10^4 PFU MCMV; P<0.001
From the text: Spleens were removed from either untreated PepBoy mice (naive donors), or those that had been inoculated with 10^5-10^6 PFU MCMV 2-4 months earlier (immune donors). Polyclonal splenocytes were harvested by perfusing spleens with sterile HBSS/FBS. […]

splenocytes = assay: Splenocyte viability in 24 hour culture
Description: Splenocytes were harvested by perfusing spleens with sterile HBSS/FBS, and washed before culture. Splenocytes (10×10^6 cells/ml) were incubated in complete media (RPMI supplemented with 10% heat-inactivated FBS, 50 μM 2-mercaptoethanol, 100 Units/ml penicillin, 100 ug/ml streptomycin, 292 μg/ml L-glutamine, 1 mM sodium pyruvate, and non-essential amino acids added according to the manufacturer's specifications (Biowhittaker, Walkersville, Md.)). […] Overall viability was assessed by counting ethidium bromide/acridine orange stained cells under fluorescence microscopy. Survival of T-cell populations was determined by flow cytometric analyses using fluorochrome conjugated antibodies against mouse CD3, CD4 and CD8. Propidium iodide stain was used to exclude dead cells from the analysis.
The data represent the mean ±SEM for 4 individual experiments.

alloreactive T-cells = assay: Limiting dilution assay of alloreactive cell frequency; settings: 20 μg/ml, B10.BR responders stimulated with C57.BL6
Description: Limiting dilution assay of B10.BR responder cells stimulated with C57.BL6.
The frequency of alloreactive cells was measured using a limiting dilution assay . Briefly, 20,000 responder cells were three-fold serially diluted in 96-well plates with 12 replicate wells per dilution. 10,000 stimulator cells were added to each well in a combined total volume of 150 μl complete media. After 7 days in co-culture, the proliferation of responder cells was measured using tritiated thymidine incorporation. The number of responder cells was plotted versus the natural logarithm of the percentage of negative wells (i.e., wells with cpm readings lesser than media control). The reciprocal of the slope of the regression line yielded the frequency of alloreactive T-cells.

B/6 to F1 BMT mice = assay: Lethality (GvHD) of 30x10^6 transferred lymphocytes without MCMV infection; assay type: in vivo, mouse; settings: 30×10^6 lymphocytes; n=20
From the text: FIGS. 9A-C. Adoptive immunotherapy to prevent MCMV lethality. Conditioned F1 recipients were infused with 5×10^6 TCD BM cells from B/6 donors. Some groups also received simultaneous infusions of 30×10^6 unselected splenocytes from B/6 donors previously infected with MCMV (immune). […] Following transplantation, mice were either infected with 2×10^4 PFU MCMV (A), or vehicle (B). Data from two separate experiments (n=20 mice per group) were combined for display and analysis. […] Survival was not improved when mice were infused with cultured (untreated) splenocytes (P>0.05). […]
To generate irradiated splenocytes for adoptive immunotherapy, cells were harvested after 24 hour culture and exposed to a single fraction of radiation from a ^137Cs source for a total of 7.5 Gy. […] The cells in a T75 tissue culture flask were then placed on a UVA (320-400 nm) illumination device with a nominal fluorescence of 7 mW (Cole Parmer, Vernon Hill, Ill.) and illuminated for 5 mins to achieve 3.0 J/cm^2 equivalent UVA dose. […]
One day prior to transplant, recipient F1 mice were conditioned using a ^137Cs source at a dose rate of 1.24 Gy/min. […] Mice were evaluated daily for morbidity and mortality. The development of clinical GvHD was prospectively monitored by weighing mice twice weekly, as well as observing for alopecia and/or ruffled fur, diarrhea, and decreased activity with a “hunched over” appearance. […]

[4] = tested on: liver of B/6 to F1 BMT mice; assay: Histologic assessment of hepatic inflammation (GvHD) and MCMV inclusions; assay type: in vivo, mouse; settings: day +14
From the text: FIGS. 11A-H. S-59/UVA-treated lymphocytes decrease hepatic MCMV infection without producing GvHD. […] Some mice were infected with 5×10^4 PFU MCMV (B, D, F, G), while others were uninfected (A, C, E). At day +14, livers were harvested from surviving mice and prepared for histologic examination. […] Numerous typical cytomegalic inclusions can be appreciated in a higher power photomicrograph (G). […] In contrast, mice infused with S-59/UVA lymphocytes had normal-appearing hepatic architecture with minimal detectable inflammation whether they were infected (F) or not (E).
Mice were euthanized, and segments of liver were immersion-fixed in 10% formalin, embedded in paraffin, cut in 8 μm sections, and stained with hematoxylin and eosin. […] Typical eosinophilic intranuclear cytomegalic inclusion bodies were counted in 10 contiguous high-power fields (hpf) on each section as a marker of viral replication. […] The results were decoded, tabulated, and analyzed by another co-author (J.R.).
A sample of liver was also prepared for microscopic quantitation of MCMV-infected cells and hepatic inflammation. A trained anatomic pathologist (D.J.), blinded to sample identity, scored the sections for MCMV inclusions and hepatic portal inflammation. Representative photomicrographs are shown in FIGS. 11(A-G) and quantitative data analysis in FIG. 11H. […]

[5] = 20 μg/ml fludarabine, 24 hour culture, % compared to starting cell no., mean ± SEM, 4 experiments

Compound	Decrease of proliferative response to concanavalin A (responder splenocytes; 10 μg/ml con A) [%]	Reduction of thymidine incorporation after stimulation with allogeneic antigen (MLR) (responder splenocytes; 7-day MLR) [%]	40 day survival rate, pilot allogeneic transplant experiments [1]	% survival, immune splenocytes (MCMV [2]) [%]	Survivors/Total, immune splenocytes (MCMV [2])	% survival, naive splenocytes (MCMV [2]) [%]	Survivors/Total, naive splenocytes (MCMV [2])	Survival compared to mice that did not receive adoptive immunotherapy (MCMV [3])	Splenocyte viability, CD4+ T-cells (splenocytes; [5]) [%]	Splenocyte viability, CD8+ T-cells (splenocytes; [5]) [%]	Splenocyte viability, all leukocytes (splenocytes; [5]) [%]	Splenocyte viability, non T-cells (splenocytes; [5]) [%]	Splenocyte viability, all leukocytes (splenocytes; 20 μg/ml fludarabine, 24 hour culture, % compared to starting cell no., mean ± SEM, 4 experiments, listed as fludarabine)	T-cell viability after fludarabine culture (splenocytes; 20 μg/ml, 24 hr)	Viability of predominantly CD8+ cultured CTL's (splenocytes; activated, allo-stimulated CTL's, in contrast to naive spleen cells)	Decrease in the frequency of allo-reactive T-cells (alloreactive T-cells) [%]	Frequency of alloreactive cells in fludarabine treated culture (alloreactive T-cells; untreated culture 1/205)	Mice that died without MCMV infection (B/6 to F1 BMT mice)	Portal inflammation score (scale 1-5) ([4]; MCMV infected)	Portal inflammation score (scale 1-5) ([4]; not MCMV infected)
9-beta-D-arabinosyl-2-fluoroadenine [Fludarabine]	37	62	most favorable	71	24/34	23	8/35	significantly improved survival	69.0 ± 9.9	62.1 ± 12.9	41.6 ± 7.8	33.6 ± 6.4	approximately 42%	60-70%	not affected	66	1/621			
Cc1oc2c(C)c3oc(=O)cc(C)c3cc2c1COCCN [S-59]				90	9/10	30	3/10	significantly improved survival										none	3.0	2.3
